{
  "source": "patent US11167013B2",
  "about": "“Sucrose acetate isobutyrate-based compositions, methods and uses thereof” (ASSOCIATION FOR THE ADVANCEMENT OF TISSUE ENGINEERING CELL …, priority 2017, dated 2021)",
  "origin": "cited, not measured here",
  "key": {"[1]": {"conditions": "as food additive"}, "[2]": {"conditions": "neat SAIB"}},
  "data": [
    {"substance": "Sucrose acetate isobutyrate [SAIB]", "values": [
      {"measurement": "allowable daily intake", "setting": "[1]", "value": 20, "unit": "mg·kg/day"},
      {"measurement": "viscosity", "setting": "[2]", "value": "over 100 Pa·s"}
    ]}
  ]
}
